# Data published in PMC6151709, “Immobilization of Moniliella spathulata R25L270 Lipase on Ionic, Hydrophobic and Covalent Supports: Functional Properties and Hydrolysis of Sardine Oil” (Molecules : A Journal of Synthetic Chemistry and Natural …, 2017).
# System: T1, M. spathulata R25L270 lipase
# T1 construct: native secreted enzyme; crude culture supernatant (Macauba cake medium), not purified here; free enzyme
# Experiment: spectrophotometric release of p-nitrophenol at […] nm
# Type: biochemical, Moniliella spathulata
# Conditions: free enzyme, crude culture supernatant; pH 8.0, 37 °C; pNPP 0.1-1 mM; Triton X-100, gum arabic, 2-propanol in the substrate solution; read-out: Michaelis Constant KM
structure (smiles),measurement,value
CCCCCCCCCCCCCCCC(=O)Oc1ccc([N+](=O)[O-])cc1 [p-nitrophenylpalmitate],Km,1920 µM
